Laboratory results as given in patent US20090036496A1, “Treatment of Stress Urinary Incontinence and Mixed Urinary Incontinence” (UROGENE, priority 2005, published 2009).

Experiments:
[1] = system: alpha1-adrenergic receptors; assay: Contraction of isolated rabbit urethra rings by activation of alpha1-adrenergic receptors; conditions: for contraction of the urethra induced by the compound itself: cumulative concentrations 0.01 to 100 μM, relative to norepinephrine 30 μM
Method: The compounds were tested in ex vivo experiments carried out on rabbit urethra.
The tests were carried out on isolates of rabbit urethra which were obtained as follows.
The whole urethra was excised and washed in order to remove the adipose and connective tissues, and then cut into rings approximately 4 mm in diameter, one at the median level, the other at the distal level of the urethra.
In this trial, the ability of each of the four compounds mentioned above to induce, by themselves, a contraction of the urethra by activation of the alpha1-adrenergic receptors, compared with norepinephrine used as a positive control, is measured.
The protocol followed is an adaptation of the protocol described by Van der Graaf et al. (Eur. J. Pharmacol., 327: 25-32, 1997).
Krebs-Henseleit solution was modified by adding propanolol (1 μM), normetanephrin (1 μM), desipramine (0.1 μM) and deoxycorticosterone (3 μM) in order to block the beta-adrenergic receptors, catechol-O-methyltransferase and the uptake of noradrenalin type 1 (neuronal) and 2 (extraneuronal), respectively.
An initial force of 1 g is applied to the samples. After a period of 60 minutes of equilibration, the rings are brought into contact with norepinephrine (30 μM), twice consecutively, separated by washing for 60 minutes. The rings that have a contractile response of less than 1 g are discarded and new rings are optionally prepared. After washing for 30 minutes, the compound tested is added at cumulative concentrations ranging from 0.01 to 100 μM. In parallel, the solvent of the compound (distilled water or DMSO) is tested thereon so as to obtain a control curve.
In the case of HP748, an additional experiment was carried out in which prazosin (1 μM), an alpha1-adrenergic receptor antagonist, was incubated for 30 minutes before the addition of HP748.
The results are expressed as percentage of the contraction induced by the second addition of norepinephrine at 30 μM as a function of the concentration of the compound. The latter is represented on a logarithmic scale, by the logarithm of the value in mol/l.

[2] = system: female New Zealand white rabbits; assay: Continuous cystometry under irritated bladder conditions (0.5% acetic acid infusion); assay type: in vivo, rabbit; conditions: for bladder capacity: p<0.01
Method: (§1) The effects of cumulative doses of HP749 (0, 1, 3 and 5 mg/kg i.v.), or duloxetine (0, 1 and 2 mg/kg i.v.) on the electromyographic and cystometric parameters were evaluated in anaesthetized female New Zealand white rabbits (n=12/group) under irritated conditions (continuous transvesical infusion of 0.5% acetic acid). The study was performed in accordance with the ethical standards of the Helsinki declaration.
Continuous cystometry was performed with the animal supine using a subcutaneous cystostomy. A T tube was connected to the multiperforable plug using a 20-gauge needle, online with a TRA021 pressure transducer and a micro-injection pump. Room-temperature diluted acetic acid was infused into the bladder at a rate of 1.4 ml/hr to elicit repetitive voidings, which allowed collection of data for a large number of voiding cycles. Continuous cystometry was recorded on a PowerLab 4/25.
(§2) At the beginning of the cystometry the bladder was emptied. The liquid infusion to stabilize the cyclic voidings was maintained at least for 60 minutes, continuously recording the cystometrogram. Then, placebo was intravenously administered, and the cystometrogram was recorded for other 40 minutes. Consecutive doses of duloxetine or HP749 were then administered with an interval of 40 minutes.
(§3) An intravenous cannula was connected to the ear vein for vehicle (saline) or drug administration. The drugs were freshly prepared before each experiment in saline. Drugs were administered intravenously in a volume of 1 ml. followed by 1 ml. flush of physiological saline.
(§4) All values were expressed as the mean±SEM. Duloxetine or HP749 effects were analyzed and compared with control (saline) values using Wilcoxon rank test. Mann-Whitney U test was performed to compare the effects of duloxetine and HP-749. Statistical significance was considered at p<0.05.

[3] = system: female New Zealand white rabbits; assay: Electromyography of striated sphincter (SS-EMG) under irritated bladder conditions; assay type: in vivo, rabbit
Method: as §1, §2
Two electrodes (30-gauge needle) were placed percutaneously into the striated anal sphincter approximately 5-10 mm. lateral to the anus. […] SS-EMG was continuously recorded during the cystometry.
as §3, §4

## CCCN(c1ccncc1F)n1cc(C)c2ccccc21 [HP184, reference compound]
[1]
  contraction of the urethra induced by the compound itself: no effect

## Cc1cn(Nc2ccncc2F)c2ccccc12 [HP183, reference compound]
[1]
  contraction of the urethra induced by the compound itself: no effect

## CCCN(c1ccncc1)n1ccc2ccccc21 [HP749, N-propyl-N-(4-pyridinyl)-1H-indol-1-amine]
[1]
  contraction of the urethra induced by the compound itself: no effect
[2]; 1 mg/kg i.v.
  bladder capacity: 172 % of the control
[2]; 5 mg/kg i.v.
  bladder capacity: 235 % of the control
[2]; Mann-Whitney U test, p<0.05
  effect on bladder capacity compared with duloxetine: significantly higher than those of duloxetine
[3]; Mann-Whitney U test, p<0.05
  effect on SS-EMG compared with duloxetine: significantly higher than those of duloxetine
[3]; all doses tested (1, 3 and 5 mg/kg i.v.), p<0.01
  SS-EMG increase: 2.5 fold

## c1ccc2c(c1)ccn2Nc1ccncc1 [HP748, N-(4-pyridinyl)-1H-indol-1-amine]
[1]
  contraction of the urethra induced by the compound itself: induces a significant contraction
[1]; preincubation with 1 μM of prazosin for 30 minutes
  contraction of the urethra after preincubation with prazosin: completely blocked

## CNCC[C@H](Oc1cccc2ccccc12)c1cccs1 [duloxetine, reference compound]
[2]; duloxetine 1 and 2 mg/kg i.v. cumulative
  bladder capacity: increased dose-dependently
[3]; 2 mg./kg i.v., p<0.01
  SS-EMG activity: significantly increased
